Among the data in the Kinase Knowledgebase extract (Sharma et al. 2016) are IC50 values, retold here.

The target in assay [1] is PIK3CA (human), P42336 [H1047R]. Nature of the assay: Assessment of PIK3CA(H1047R) Kinase Activity.
The target of the next assay is PIK3CG (human) (UniProt P48736). Nature of the assay: Assessment of PIK3CG Kinase Activity.
Assay [2] deals with PIK3CA (human), P42336 [E545K]. Briefly: Assessment of PIK3CA(E545K) Kinase Activity.
For another assay, the target named is PIK3CB (Human) (UniProt P42338). Briefly: Assessment of PIK3CB Kinase Activity.
The target in another assay is PIK3CA (human) (UniProt P42336). Briefly: Assessment of PIK3CA Kinase Activity.
PIK3CA (human), sequence (P42336 whole entry, looked up): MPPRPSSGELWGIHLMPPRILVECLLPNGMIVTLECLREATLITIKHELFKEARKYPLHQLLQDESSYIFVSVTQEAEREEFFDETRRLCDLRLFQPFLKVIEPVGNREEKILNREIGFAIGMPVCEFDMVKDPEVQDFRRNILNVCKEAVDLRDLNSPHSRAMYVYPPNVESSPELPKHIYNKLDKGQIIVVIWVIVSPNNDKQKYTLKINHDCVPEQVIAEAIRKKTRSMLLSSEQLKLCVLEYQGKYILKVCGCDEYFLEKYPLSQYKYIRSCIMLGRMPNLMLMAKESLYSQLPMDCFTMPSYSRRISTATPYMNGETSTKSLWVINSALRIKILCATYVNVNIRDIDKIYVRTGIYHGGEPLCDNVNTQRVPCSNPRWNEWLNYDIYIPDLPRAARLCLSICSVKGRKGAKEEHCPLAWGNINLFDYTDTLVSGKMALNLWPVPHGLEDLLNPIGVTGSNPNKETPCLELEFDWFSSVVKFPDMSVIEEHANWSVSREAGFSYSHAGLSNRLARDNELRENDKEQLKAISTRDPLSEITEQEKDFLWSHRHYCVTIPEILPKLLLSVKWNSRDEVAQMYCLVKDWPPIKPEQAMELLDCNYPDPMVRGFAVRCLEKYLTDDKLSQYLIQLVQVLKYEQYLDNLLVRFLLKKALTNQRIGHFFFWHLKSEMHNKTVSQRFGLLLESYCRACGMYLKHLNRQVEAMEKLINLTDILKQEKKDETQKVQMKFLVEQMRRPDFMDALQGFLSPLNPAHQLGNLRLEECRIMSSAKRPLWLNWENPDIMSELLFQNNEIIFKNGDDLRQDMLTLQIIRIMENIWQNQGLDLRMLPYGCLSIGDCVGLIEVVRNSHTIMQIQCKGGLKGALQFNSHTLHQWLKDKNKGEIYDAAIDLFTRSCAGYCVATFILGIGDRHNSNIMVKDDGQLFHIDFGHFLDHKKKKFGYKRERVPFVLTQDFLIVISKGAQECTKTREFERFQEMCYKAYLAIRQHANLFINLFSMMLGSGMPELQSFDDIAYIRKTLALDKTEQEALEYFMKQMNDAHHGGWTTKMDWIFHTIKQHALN

PIK3CG (human), sequence (P48736 whole entry, looked up): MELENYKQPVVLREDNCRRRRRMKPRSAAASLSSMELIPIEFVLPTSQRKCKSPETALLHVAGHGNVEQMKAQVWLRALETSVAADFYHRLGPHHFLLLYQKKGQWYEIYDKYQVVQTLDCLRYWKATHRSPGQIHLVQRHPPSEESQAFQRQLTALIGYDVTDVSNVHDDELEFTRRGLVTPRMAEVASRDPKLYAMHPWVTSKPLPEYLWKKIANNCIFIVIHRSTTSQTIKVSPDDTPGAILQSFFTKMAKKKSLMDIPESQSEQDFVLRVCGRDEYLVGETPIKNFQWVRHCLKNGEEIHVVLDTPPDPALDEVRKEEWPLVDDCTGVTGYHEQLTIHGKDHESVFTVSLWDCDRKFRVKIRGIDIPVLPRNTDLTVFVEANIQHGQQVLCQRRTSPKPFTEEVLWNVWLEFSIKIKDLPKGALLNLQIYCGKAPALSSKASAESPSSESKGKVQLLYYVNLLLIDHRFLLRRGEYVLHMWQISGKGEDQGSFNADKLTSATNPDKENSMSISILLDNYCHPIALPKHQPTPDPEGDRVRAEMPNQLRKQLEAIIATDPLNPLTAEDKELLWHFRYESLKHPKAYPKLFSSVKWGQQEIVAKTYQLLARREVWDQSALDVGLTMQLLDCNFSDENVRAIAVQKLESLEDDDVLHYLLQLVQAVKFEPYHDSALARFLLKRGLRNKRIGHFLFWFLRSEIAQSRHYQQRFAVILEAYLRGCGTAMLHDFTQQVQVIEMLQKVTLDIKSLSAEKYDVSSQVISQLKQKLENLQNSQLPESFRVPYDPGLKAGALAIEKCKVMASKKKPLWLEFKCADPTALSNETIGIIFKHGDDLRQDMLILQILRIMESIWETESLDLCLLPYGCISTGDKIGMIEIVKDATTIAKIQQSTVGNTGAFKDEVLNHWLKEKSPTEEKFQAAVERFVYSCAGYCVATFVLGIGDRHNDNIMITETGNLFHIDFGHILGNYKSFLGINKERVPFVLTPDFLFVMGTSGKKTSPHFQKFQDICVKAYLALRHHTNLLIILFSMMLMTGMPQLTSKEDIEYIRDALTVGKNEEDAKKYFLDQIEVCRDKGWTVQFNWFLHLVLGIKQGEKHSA
PIK3CB (Human), sequence (P42338 whole entry, looked up): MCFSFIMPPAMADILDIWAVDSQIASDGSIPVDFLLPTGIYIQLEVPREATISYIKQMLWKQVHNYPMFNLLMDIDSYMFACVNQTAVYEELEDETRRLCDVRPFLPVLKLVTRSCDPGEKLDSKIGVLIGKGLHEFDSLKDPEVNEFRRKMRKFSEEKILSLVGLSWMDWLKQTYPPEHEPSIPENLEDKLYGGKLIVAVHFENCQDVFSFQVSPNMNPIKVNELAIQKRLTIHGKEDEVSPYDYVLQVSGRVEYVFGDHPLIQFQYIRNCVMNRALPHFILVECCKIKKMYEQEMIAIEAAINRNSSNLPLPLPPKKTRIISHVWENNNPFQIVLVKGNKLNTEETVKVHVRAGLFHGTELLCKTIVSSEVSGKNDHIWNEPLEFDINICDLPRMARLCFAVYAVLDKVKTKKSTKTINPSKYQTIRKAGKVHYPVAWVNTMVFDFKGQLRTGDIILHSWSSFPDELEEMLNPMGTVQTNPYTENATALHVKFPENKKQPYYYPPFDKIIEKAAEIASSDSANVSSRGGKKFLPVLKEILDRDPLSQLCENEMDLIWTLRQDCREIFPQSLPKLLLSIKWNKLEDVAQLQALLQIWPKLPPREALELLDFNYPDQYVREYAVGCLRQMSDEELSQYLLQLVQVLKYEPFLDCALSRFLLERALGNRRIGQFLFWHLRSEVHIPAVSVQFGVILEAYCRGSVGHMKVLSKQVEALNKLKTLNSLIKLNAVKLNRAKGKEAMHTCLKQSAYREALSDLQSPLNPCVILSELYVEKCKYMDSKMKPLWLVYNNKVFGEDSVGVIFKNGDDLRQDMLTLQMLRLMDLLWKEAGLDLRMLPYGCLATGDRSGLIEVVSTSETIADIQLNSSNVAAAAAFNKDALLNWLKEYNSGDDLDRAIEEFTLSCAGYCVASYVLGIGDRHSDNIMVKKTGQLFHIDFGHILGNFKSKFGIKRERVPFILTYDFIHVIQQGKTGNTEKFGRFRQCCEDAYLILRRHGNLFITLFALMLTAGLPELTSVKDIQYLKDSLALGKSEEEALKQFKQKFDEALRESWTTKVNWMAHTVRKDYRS
PIK3CA (human), P42336 [E545K], sequence (P42336 whole entry E545K, looked up): as the sequence (P42336 whole entry, looked up) above, with E545K counted along it
PIK3CA (human), P42336 [H1047R], sequence (P42336 whole entry H1047R, looked up): as the sequence (P42336 whole entry, looked up) above, with H1047R counted along it

The term IC50 denotes the point on the concentration scale where inhibition reaches its midpoint. As to `CN(C)C(=O)c1ccc(NC(=O)Nc2ccc(-c3nc(N4CCOCC4)c4ccc(-c5cccc(S(C)(=O)=O)c5)cc4n3)cn2)cc1`, the IC50 in assay [1] was below 50 nM; against PIK3CG (human) it was below 500 nM; in assay [2], below 50 nM; at PIK3CB (Human), below 50 nM; at PIK3CA (human), below 50 nM.

As for `CN(C)C(=O)c1ccc(NC(=O)Nc2ccc(-c3nc(N4CCOCC4)c4ccc(-c5cncnc5)cc4n3)cc2)c(F)c1`, the IC50 is 50 to 500 nM in assay [1]; below 500 nM at PIK3CG (human); 50 to 500 nM in assay [2]; 50 to 500 nM at PIK3CB (Human); below 50 nM on PIK3CA (human).

As to `CN(C)C(=O)c1ccc(NC(=O)Nc2ccc(-c3nc(N4CCOCC4)c4ccc(-c5ccco5)cc4n3)cc2)cc1`, the IC50 in assay [1] is below 50 nM; at PIK3CG (human) it was below 500 nM; in assay [2], below 50 nM; against PIK3CB (Human) it was below 50 nM; on PIK3CA (human), below 50 nM.

Regarding `CN(C)C(=O)c1ccc(NC(=O)Nc2ccc(-c3nc(N4CCOCC4)c4cc(F)c(-c5cnn(C)c5)cc4n3)cn2)cc1`, the 50% inhibitory concentration (IC50) in assay [1] was below 50 nM; against PIK3CG (human) it was below 500 nM; in assay [2] it was below 50 nM; against PIK3CB (Human), below 50 nM; on PIK3CA (human), below 50 nM.

As for `CN(C)C(=O)c1ccc(NC(=O)Nc2ccc(-c3nc(N4CCOCC4)c4ccc(-c5cccnc5)cc4n3)cc2)c(F)c1`, the IC50 in assay [1] is 50 to 500 nM; at PIK3CG (human), below 500 nM; in assay [2], 50 to 500 nM; against PIK3CB (Human), 50 to 500 nM; against PIK3CA (human) it was below 50 nM.

For `CN(C)C(=O)c1ccc(NC(=O)Nc2ccc(-c3nc(N4CCOCC4)c4ccc(-c5cccnc5F)cc4n3)cn2)cc1`, the IC50 in assay [1] was below 50 nM; against PIK3CG (human), below 500 nM; in assay [2], below 50 nM; against PIK3CB (Human), below 50 nM; against PIK3CA (human), below 50 nM.

For `CN(C)C(=O)c1ccc(NC(=O)Nc2ccc(-c3nc(N4CCOCC4)c4ncc(-c5cccnc5F)cc4n3)cn2)cc1`, the IC50 in assay [1] is below 50 nM; on PIK3CG (human), below 500 nM; in assay [2], below 50 nM; on PIK3CB (Human) it was below 50 nM; against PIK3CA (human), below 50 nM.

For the compound `Cc1ccc(-c2ccc3c(N4CCOCC4)nc(-c4ccc(NC(=O)Nc5ccc(C(=O)N(C)C)cc5)cc4)nc3c2)o1`, the half-inhibitory concentration (IC50) in assay [1] is below 50 nM; on PIK3CG (human), 500 to 1000 nM; in assay [2], below 50 nM; against PIK3CB (Human) it was 500 to 1000 nM; against PIK3CA (human), below 50 nM.

As for `CN(C)C(=O)c1ccc(NC(=O)Nc2ccc(-c3nc(N4CCOCC4)c4ccc(-c5cccnc5F)cc4n3)cc2)c(F)c1`, the IC50 in assay [1] lay within 50 to 500 nM; in assay [2], 50 to 500 nM; on PIK3CB (Human), 50 to 500 nM; on PIK3CA (human) it was 50 to 200 nM.

Turning to `CN(C)C(=O)c1ccc(NC(=O)Nc2ccc(-c3nc(N4CCOCC4)c4ncc(-c5cccc(S(C)(=O)=O)c5)cc4n3)cn2)cc1`, the IC50 is below 50 nM in assay [1]; below 500 nM at PIK3CG (human); below 50 nM in assay [2]; below 50 nM against PIK3CB (Human); below 50 nM on PIK3CA (human).

Turning to `CN(C)C(=O)c1ccc(NC(=O)Nc2ccc(-c3nc(N4CCOCC4)c4ncc(-c5cccc(S(C)(=O)=O)c5)cc4n3)cc2F)cc1`, the IC50 is below 50 nM in assay [1]; below 500 nM at PIK3CG (human); below 50 nM in assay [2]; 50 to 500 nM at PIK3CB (Human); below 50 nM against PIK3CA (human).

With `CN(C)C(=O)c1ccc(NC(=O)Nc2ccc(-c3nc(N4CCOCC4)c4ccc(-c5cncnc5)cc4n3)cc2)cc1`, the IC50 (in assay [1]; in assay [2]; on PIK3CA (human)) was below 50 nM in each case.

As for `CN(C)C(=O)c1ccc(NC(=O)Nc2ccc(-c3nc(N4CCOCC4)c4ccc(-c5cccc(S(C)(=O)=O)c5)cc4n3)cn2)cc1F`, the IC50 was below 50 nM in assay [1]; below 500 nM against PIK3CG (human); below 50 nM in assay [2]; below 50 nM at PIK3CB (Human); below 50 nM against PIK3CA (human).

As for `CN(C)C(=O)c1ccc(NC(=O)Nc2ccc(-c3nc(N4CCOCC4)c4ccc(CO)cc4n3)cc2)cc1`, the half-inhibitory concentration (IC50) on PIK3CA (human) was below 50 nM.

Consider `CC(=O)Nc1cccc(-c2ccc3c(N4CCOCC4)nc(-c4ccc(NC(=O)Nc5ccc(C(=O)N(C)C)cc5)cc4)nc3c2)c1`, for which the concentration for half-maximal inhibition (IC50) against PIK3CA (human) is below 50 nM.

For the compound `CN(C)[C@H]1CCN(C(=O)c2ccc(NC(=O)Nc3ccc(-c4nc(N5CCOCC5)c5ncc(-c6cccnc6F)cc5n4)cc3F)cc2)C1`, on PIK3CA (human), the IC50 is below 50 nM.

Consider `Cc1nn(C)c(C)c1-c1ccc2c(N3CCOCC3)nc(-c3ccc(NC(=O)Nc4ccc(C(=O)N(C)C)cc4)cc3F)nc2c1`, for which the IC50 against PIK3CA (human) was below 50 nM.

In the case of `Cc1ncccc1-c1ccc2c(N3CCOCC3)nc(-c3ccc(NC(=O)Nc4ccc(C(=O)N(C)C)cc4)cc3)nc2c1`, the IC50 on PIK3CA (human) was below 50 nM.

`COc1ncc(-c2ccc3c(N4CCOCC4)nc(-c4ccc(NC(=O)Nc5ccc(C(=O)N(C)C)cc5)cc4)nc3c2)cn1` registered a 50% inhibitory concentration (IC50) against PIK3CA (human) below 50 nM.

As to `CN(C)C(=O)c1ccc(NC(=O)Nc2ccc(-c3nc(N4CCOCC4)c4ccc(-c5ccc(C(C)(C)O)o5)cc4n3)c(F)c2)cc1`, the half-inhibitory concentration (IC50) against PIK3CA (human) was 50 to 200 nM.

Turning to `CN(C)C(=O)c1ccc(NC(=O)Nc2ccc(-c3nc(N4CCOCC4)c4ncc(-c5cnc(N)nc5)cc4n3)cc2)cc1`, the IC50 at PIK3CA (human) was below 50 nM.

Consider `CN1CCN(C(=O)c2ccc(NC(=O)Nc3ccc(-c4nc(N5CCOCC5)c5ccc(-c6ccsc6)cc5n4)cc3)cc2)CC1`, for which the half-inhibitory concentration (IC50) against PIK3CA (human) was in the range of 50 to 200 nM.

`CC(=O)Nc1ccc(NC(=O)Nc2ccc(-c3nc(N4CCOCC4)c4ccc(-c5ccc(C)o5)cc4n3)cc2)cc1` gave an IC50 on PIK3CA (human) of 50 to 200 nM.
